Experimental findings from patent US20170143712A1, “Methods of Treating Cancers, Immune and Autoimmune Diseases, and Inflammatory Diseases Based on BTK Occupancy and BTK Resynthesis Rate” (Acerta Pharma B.V., priority 2014, published 2017) are described below.

Each structure is given as a SMILES string.

The test concerns MDA-MB-231 tumor cells. In words: Osteolytic bone lesions after intratibial MDA-MB-231 tumor inoculation in nude rats. It counts as in vivo, rat. Also noted: mean visual lysis score: scale not given here; mean left tibial density: unit not given here. As to conditions: zoledronate group (Group 2). Here is the method: FIG. 40A, FIG. 40B, FIG. 40C, FIG. 40D, FIG. 40E, FIG. 40F, and FIG. 40G illustrate the bone density in hind limbs of nude rats (n=6 per group) implanted with intratibial MDA-MB231 tumor […] and treated for up to 41 days with vehicle control, zoledronate (active control) or varying doses of Formula (II). Oral gavage administration of Formula (II) was scheduled as 3 days of initial QD dosing, followed by 30 days of BID dosing at the following dose levels: 3/3, 30/30, and 180/90 mg/kg/day. An untreated group of rats, without tibial implants (n=3) represents bone density of concurrently obtained normal rat tibial images. Statistical significance was determined by two-way ANOVA-Dunnett: ns=not significant, *=P<0.05, **=P<0.01, ***=P<0.001, versus Group 1.
Rats were inoculated with MDA-MB-231 tumor cells on Day 1, baseline radiographs were taken on Day 2, and treatment with Formula (II) began on Day 8. Radiographs were taken on Days 10, 17, 24, 31, 38, and 41. Anti-osteolytic activities were determined from differences in bone density and visual lysis scores between the drug-treated and vehicle-treated groups on each observation day, and also from changes in bone density and visual lysis scores in tumor-inoculated left tibias at baseline (Day 2) compared to Days 10, 17, 24,31, 38, and 41.
Radiographs were blinded for both analyses. […] Visual osteolysis was not detected in any rat in the nave group. The 4% increase in mean bone density from baseline to study end presumably reflected normal growth in these rats.

Consider `O=P(O)(O)C(O)(Cn1ccnc1)P(=O)(O)O` [zoledronate, reference compound], for which the “mean left tibial density” value by setting is: (Day 2 baseline) 200.0±1.6; (Day 31) 207.8±1.6; (Day 41) 211.2±1.6. Moreover, the “increase in mean left tibial density” value (Day 2 to Days 31 and 41) is recorded as 4-6%. Further, the “mean visual lysis score” value (Days 31 and 41 each) was 0.7.
